One assay has as its target T1, HCV NS5B (Hepatitis C virus genotype 1b, UniProt Q9WMX2).
T1 construct: The protein was expressed with an 18 amino acid C-terminal truncation to enhance the solubility; made in house; host or cells: E. coli BL21(DE3)
In words: Modified HCV NS5B RdRp enzyme assay (preincubation protocol). The format is biochemical. To be noted: HCV NS5B RdRp genotype 1b. As for the experimental part: HCV NS5B RdRp cloning, expression, and purification. The cDNA encoding the NS5B protein of HCV, genotype 1b, was cloned into the pET21a expression vector. The protein was expressed with an 18 amino acid C-terminal truncation to enhance the solubility. The E. coli competent cell line BL21(DE3) was used for expression of the protein. Cultures were grown at 37° C. for ˜4 hours until the cultures reached an optical density of 2.0 at 600 nm. The cultures were cooled to 20° C. and induced with 1 mM IPTG. Fresh ampicillin was added to a final concentration of 50 μg/ml and the cells were grown overnight at 20° C.
Cell pellets (3 L) were lysed for purification to yield 15-24 […] of purified NS5B. The lysis buffer consisted of 20 mM Tris-HCl, pH 7.4, 500 mM NaCl, 0.5% triton X-100, 1 mM DTT, 1 mM EDTA, 20% glycerol, 0.5 mg/ml lysozyme, 10 mM MgCl2, 15 ug/ml deoxyribonuclease I, and Complete TM protease inhibitor tablets (Roche). After addition of the lysis buffer, frozen cell pellets were resuspended using a tissue homogenizer. To reduce the viscosity of the sample, aliquots of the lysate were sonicated on ice using a microtip attached to a Branson sonicator. The sonicated lysate was centrifuged at 100,000×g for 1 hr at 4° C. and filtered through a 0.2 μm filter unit (Corning).
The protein was purified using three sequential chromatography steps: Heparin sepharose CL-6B, polyU sepharose 4B, and Hitrap SP sepharose (Pharmacia). The chromatography buffers were identical to the lysis buffer but contained no lysozyme, deoxyribonuclease I, MgCl2 or protease inhibitor and the NaCl concentration of the buffer was adjusted according to the requirements for charging the protein onto the column. Each column was eluted with a NaCl gradient which varied in length from 5-50 column volumes depending on the column type. After the final chromatography step, the resulting purity of the enzyme is >90% based on SDS-PAGE analysis. The enzyme was aliquoted and stored at −80° C.
Standard HCV NS5B RdRp enzyme assay. HCV RdRp genotype 1b assays were run in a final volume of 60 μl in 96 well plates (Costar 3912). The assay buffer is composed of 20 mM Hepes, pH 7.5, 2.5 mM KCl, 2.5 mM MgCl2, 1 mM DTT, 1.6 U RNAse inhibitor (Promega N2515), 0.1 mg/ml BSA (Promega R3961), and 2% glycerol. All compounds were serially diluted (3-fold) in DMSO and diluted further in water such that the final concentration of DMSO in the assay was 2%. HCV RdRp genotype 1b enzyme was used at a final concentration of 28 nM. A polyA template was used at 6 nM, and a biotinylated oligo-dT12 primer was used at 180 nM final concentration. Template was obtained commercially (Amersham 27-4110). Biotinylated primer was prepared by Sigma Genosys. 3H-UTP was used at 0.6 μCi (0.29 μM total UTP). Reactions were initiated by the addition of enzyme, incubated at 30° C. for 60 min, and stopped by adding 25 μl of 50 mM EDTA containing SPA beads (4 μg/μl, Amersham RPNQ 0007). Plates were read on a Packard Top Count NXT after >1 hr incubation at room temperature.
Modified HCV NS5B RdRp enzyme assay. A modified enzyme assay was performed essentially as described for the standard enzyme assay except for the following: The biotinylated oligo dTl2 primer was precaptured on streptavidin-coated SPA beads by mixing primer and beads in assay buffer and incubating at room temperature for one hour. Unbound primer was removed after centrifugation. The primer-bound beads were resuspended in 20 mM Hepes buffer, pH 7.5 and used in the assay at final concentrations of 20 nM primer and […] beads. Order of addition in the assay: enzyme (14 nM) was added to diluted compound followed by the addition of a mixture of template (0.2 nM), 3H-UTP (0.6 μCi, 0.29 μM), and primer-bound beads, to initiate the reaction; concentrations given are final. Reactions were allowed to proceed for 4 hours at 30° C.
IC50 values for compounds were determined using seven different. […]

A further assay has as its system HCV replicon cells. The experiment in a line: HCV FRET assay in HCV replicon cells. To be noted: Hepatitis C virus. The format is cell-based. The text has this:
FRET Assay Preparation. To perform the HCV FRET screening assay, 96-well cell culture plates were used. The FRET peptide (Anaspec, Inc.) (Taliani et al., Anal. Biochem. 1996, 240, 60-67) contains a fluorescence donor, EDANS, near one end of the peptide and an acceptor, DABCYL, near the other end. The fluorescence of the peptide is quenched by […] resonance energy transfer (RET) between the donor and the acceptor, but as the NS3 protease cleaves the peptide the products are released from RET quenching and the fluorescence of the donor becomes apparent. The assay reagent was made as follows: 5× cell Luciferase cell culture lysis reagent from Promega (#E153A) diluted to 1× with dH2O, NaCl added to 150 mM final, the FRET peptide diluted to 20 uM final from a 2 mM stock.
To prepare plates, HCV replicon cells, with or without a Renilla luciferase reporter gene, were trypsinized and placed into each well of a 96-well plate with titrated test compounds added in columns 3 through 12; columns 1 and 2 contained a control compound (HCV protease inhibitor), and the bottom row contained cells without compound. The plates were then placed in a CO2 incubator at 37° C.
Assays. Subsequent to addition of the test compounds described above (FRET Assay Preparation), at various times the plate was removed and Alamar blue solution (Trek Diagnostics, #00-100) was added per well as a measure of cellular toxicity. After reading in a Cytoflour 4000 instrument (PE Biosystems), plates were rinsed with PBS and then used for FRET assay by the addition of 30 ul of the FRET peptide assay reagent described above (FRET Assay Preparation) per well. The plate was then placed into the Cytoflour 4000 instrument which had been set to 340 excite/490 emission, automatic mode for 20 cycles and the plate read in a kinetic mode. Typically, the signal to noise using an endpoint analysis after the reads was at least three-fold. Alternatively, after Alamar blue reading, plates were rinsed with PBS, 50 ul of DMEM (high glucose) without phenol red was added and plates were then used for luciferase assay using the Promega Dual-Glo Luciferase Assay System.
Compound analysis was determined by quantification of the relative HCV replicon inhibition and the relative cytotoxicity values. To calculate cytoxicity values, the average Alamar Blue fluorescence signals from the control wells were set as 100% non-toxic. The individual signals in each of the compound test wells were then divided by the average control signal and multiplied by 100% to determine […]. To calculate the HCV replicon inhibition values, an average background value was obtained from the two wells containing the highest amount of HCV protease inhibitor at the end of the assay period. These numbers were similar to those obtained from naïve Huh-7 cells.
The background numbers were then subtracted from the average signal obtained from the control wells and this number was used as 100% activity. The individual signals in each of the compound test wells were then divided by the averaged control values after background subtraction and multiplied by 100% to determine percent activity. EC50 values for a protease inhibitor titration were calculated as the concentration which caused a 50% reduction in FRET or luciferase activity. The two numbers generated for the compound plate, percent cytoxicity and percent activity were used to determine compounds of interest for further analysis.
(In antiviral work, replicon cells carry a viral genome segment that copies itself.)

T1 sequence (Q9WMX2 2420-2992): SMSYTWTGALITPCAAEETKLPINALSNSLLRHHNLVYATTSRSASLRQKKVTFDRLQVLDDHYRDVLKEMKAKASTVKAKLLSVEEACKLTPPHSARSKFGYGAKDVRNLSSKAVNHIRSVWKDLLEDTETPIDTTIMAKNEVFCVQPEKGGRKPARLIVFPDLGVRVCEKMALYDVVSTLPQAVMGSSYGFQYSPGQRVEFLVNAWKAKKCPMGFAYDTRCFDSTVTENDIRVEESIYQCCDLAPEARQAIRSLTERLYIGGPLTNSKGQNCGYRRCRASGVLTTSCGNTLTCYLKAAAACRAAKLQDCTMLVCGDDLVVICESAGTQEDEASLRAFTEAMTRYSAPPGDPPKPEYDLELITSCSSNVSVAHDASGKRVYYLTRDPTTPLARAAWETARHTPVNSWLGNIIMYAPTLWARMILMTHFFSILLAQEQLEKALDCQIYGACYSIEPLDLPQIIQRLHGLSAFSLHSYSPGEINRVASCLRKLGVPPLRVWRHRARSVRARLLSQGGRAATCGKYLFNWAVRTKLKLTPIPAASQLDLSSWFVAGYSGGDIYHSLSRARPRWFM

Turning to `COc1ccc2c(c1)C1CN(C(=O)[C@@H]3CCCN3C)CC1(C(=O)N(C)C)Cn1c-2c(C2CCCCC2)c2ccc(C(=O)NS(=O)(=O)N(C)C)cc21` (mixture of isomers) [Example 19, rac-(3aR,14bR)-10-cyclohexyl-N^7-(dimethylsulfamoyl)-13-methoxy-N^3a,N^3a-dimethyl-2-(1-methyl-L-prolyl)-1,2,3,14b-tetrahydroindolo[2,1-a]pyrrolo[3,4-d][2]benzazepine-3a,7(4H)-dicarboxamide], at HCV NS5B, half-maximal inhibition (IC50) required 61 nM. Also, the EC50 (in general, the concentration that produces a half-maximal response) in the assay with HCV replicon cells came to 63 nM.

The values are drawn from US8119628B2, “Pyrrolidine fused indolobenzadiazepine HCV NS5B inhibitors” (Bristol-Myers Squibb Company, priority 2008, dated 2012).
